Assay results taken from patent US9255094B2, “Pyrido[4,3-B]indoles and methods of use” (Medivation Technologies, Inc., priority 2009, dated 2016).

Experiments:
[1] = target: T1, human recombinant adrenergic α2B receptor (Homo sapiens, UniProt P18089); test: Adrenergic α2B radioligand binding assay ([3H]Rauwolscine); settings: 2.5 nM [3H]Rauwolscine, CHO-K1 cells; for inhibition at 0.1 µM: compound at 0.1 μM, read-out: Percent Inhibition of ligand binding, Adrenergic (0.1 μM) a2B; for inhibition at 1 µM: compound at 1 μM, read-out: Percent Inhibition of ligand binding, Adrenergic (1 μM) a2B
T1 construct: expressed in transfected cells; host or cells: Chinese hamster ovary (CHO-K1) cells
T1 sequence (P18089 1-450): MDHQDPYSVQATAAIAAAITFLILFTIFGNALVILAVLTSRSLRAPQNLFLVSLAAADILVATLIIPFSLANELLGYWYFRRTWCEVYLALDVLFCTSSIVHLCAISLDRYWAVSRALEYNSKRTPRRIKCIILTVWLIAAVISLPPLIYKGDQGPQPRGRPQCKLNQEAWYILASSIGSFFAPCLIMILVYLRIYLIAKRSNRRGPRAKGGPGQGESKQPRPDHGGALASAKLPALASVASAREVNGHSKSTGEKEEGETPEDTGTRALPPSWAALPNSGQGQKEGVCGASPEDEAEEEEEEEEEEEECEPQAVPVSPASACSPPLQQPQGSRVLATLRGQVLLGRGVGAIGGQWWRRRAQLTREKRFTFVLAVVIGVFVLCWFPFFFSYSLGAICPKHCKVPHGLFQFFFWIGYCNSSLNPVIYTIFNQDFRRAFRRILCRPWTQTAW
Description: To evaluate in radioligand binding assays the activity of compounds of the invention, human recombinant adrenergic α2B receptor expressed in Chinese hamster ovary (CHO-K1) cells (Uhlen S et al., Eur. J. Pharmacol. 343(1):93, 1998) in a modified Tris-HCl buffer (50 mM Tris-HCl, pH 7.4, 12.5 mM MgCl2, 1 mM EDTA, 0.2% BSA) was used. Compounds of the invention were incubated with 2.5 nM [^3H]Rauwolscine for 60 min at 25° C. Non-specific binding was estimated in the presence of 10 μM Prozosin. Receptor proteins were filtered and washed, the filters were then counted to determine [^3H]Rauwolscine specifically bound.

[2] = target: T2, rat adrenergic α1B receptor (Rattus norvegicus, UniProt P15823); test: Adrenergic α1B radioligand binding assay ([3H]Prozosin); settings: compound at 0.1 μM; 0.25 nM [3H]Prozosin; Wistar Rat liver; read-out: Percent Inhibition of ligand binding, Adrenergic (0.1 μM) a1B
T2 construct: from tissue; host or cells: Wistar Rat liver
T2 sequence (P15823 1-515): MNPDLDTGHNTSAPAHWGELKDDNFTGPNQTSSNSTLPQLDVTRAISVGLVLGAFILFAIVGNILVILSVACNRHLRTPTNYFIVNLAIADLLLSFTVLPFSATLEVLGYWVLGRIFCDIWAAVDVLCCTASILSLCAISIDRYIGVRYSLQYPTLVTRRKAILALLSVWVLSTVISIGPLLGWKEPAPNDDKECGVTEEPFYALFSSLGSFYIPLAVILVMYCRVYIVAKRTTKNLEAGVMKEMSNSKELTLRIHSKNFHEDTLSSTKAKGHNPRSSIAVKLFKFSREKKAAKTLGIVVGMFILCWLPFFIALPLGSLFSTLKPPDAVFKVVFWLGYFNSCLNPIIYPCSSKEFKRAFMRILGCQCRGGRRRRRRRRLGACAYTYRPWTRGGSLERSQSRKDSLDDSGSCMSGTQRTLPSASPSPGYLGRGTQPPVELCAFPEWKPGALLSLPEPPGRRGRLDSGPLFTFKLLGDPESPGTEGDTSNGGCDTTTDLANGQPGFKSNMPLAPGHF
Description: To evaluate in radioligand binding assays the activity of compounds of the invention, rat adrenergic α1B receptor obtained from Wistar Rat liver (Garcia-S'ainz, J. A. et al., Biochem. Biophys. Res. Commun. 186:760, 1992; Michel A. D. et al., Br. J. Pharmacol. 98:883, 1989) in a modified Tris-HCl buffer (50 mM Tris-HCl buffer, pH 7.4, 0.5 mM EDTA) is used. Compounds of the invention are incubated with 0.25 nM [^3H]Prozosin for 60 min at 25° C. Non-specific binding is estimated in the presence of 10 μM phentolamine. Receptor proteins are filtered and washed, the filters are then counted to determine [^3H]Prozosin specifically bound. Compounds are screened at 1 μM or lower, using 1% DMSO as vehicle. Compounds of the invention are tested in this biochemical assay and percent inhibition of specific binding is determined.

[3] = target: T3, human recombinant serotonin (5-Hydroxytryptamine) 5-HT6 receptor (Homo sapiens, UniProt P50406); test: Serotonin 5-HT6 radioligand binding assay ([3H]LSD); settings: HeLa cells; for inhibition at 0.1 µM: compound at 0.1 μM, read-out: Percent Inhibition of ligand binding, Serotonin (0.1 μM) 5-HT6; for inhibition at 1 µM: compound at 1 μM, read-out: Percent Inhibition of ligand binding, Serotonin (1 μM) 5-HT6
T3 construct: expressed in transfected cells; host or cells: human HeLa cells
T3 sequence (P50406 whole entry): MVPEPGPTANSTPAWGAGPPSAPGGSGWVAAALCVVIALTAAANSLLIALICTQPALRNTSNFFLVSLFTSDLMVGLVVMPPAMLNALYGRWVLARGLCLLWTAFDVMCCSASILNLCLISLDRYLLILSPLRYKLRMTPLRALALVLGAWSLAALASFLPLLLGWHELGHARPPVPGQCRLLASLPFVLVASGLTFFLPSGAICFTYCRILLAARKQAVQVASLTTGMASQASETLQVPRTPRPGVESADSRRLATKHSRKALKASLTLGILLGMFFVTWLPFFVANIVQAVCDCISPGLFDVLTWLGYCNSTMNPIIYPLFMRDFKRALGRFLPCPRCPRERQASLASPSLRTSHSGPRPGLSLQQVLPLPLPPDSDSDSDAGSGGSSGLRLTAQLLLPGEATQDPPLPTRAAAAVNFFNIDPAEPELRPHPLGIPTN
Description: (§1) Compounds of the invention were incubated with 1.5 nM [3H]Lysergic acid diethylamide (LSD) for 120 min at 37° C. […] Receptor proteins were filtered and washed, the filters were then counted to determine [3H]LSD specifically bound. Compounds were screened at 1 μM or lower, using 1% DMSO as vehicle. Biochemical assay results are presented as the percent inhibition of specific binding in Table 4.

[4] = target: T4, human recombinant histamine H2 receptor (Homo sapiens, UniProt P25021); test: Histamine H2 radioligand binding assay ([125I]Aminopotentidine); settings: compound at 1 μM; 0.1 nM [125I]Aminopotentidine; receptor expressed in CHO-K1 cells
T4 construct: expressed in transfected cells; host or cells: Chinese hamster ovary (CHO) K1 cells
T4 sequence (P25021 whole entry): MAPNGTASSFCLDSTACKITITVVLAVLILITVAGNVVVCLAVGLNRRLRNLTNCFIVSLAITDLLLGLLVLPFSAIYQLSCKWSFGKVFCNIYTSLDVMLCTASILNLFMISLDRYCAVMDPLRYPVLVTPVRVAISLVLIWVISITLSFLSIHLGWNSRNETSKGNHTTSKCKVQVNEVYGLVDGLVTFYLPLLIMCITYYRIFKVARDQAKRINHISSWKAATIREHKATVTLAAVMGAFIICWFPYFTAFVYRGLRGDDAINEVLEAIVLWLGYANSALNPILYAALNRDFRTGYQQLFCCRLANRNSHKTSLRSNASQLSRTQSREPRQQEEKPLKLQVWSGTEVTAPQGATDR
Description: To evaluate in radioligand binding assays the activity of compounds of the invention, human recombinant histamine H2 receptor expressed in Chinese hamster ovary (CHO) K1 cells (Ruat, M., Proc. Natl. Acad. Sci. USA. 87(5):1658, 1990) in a 50 mM Phosphate buffer, pH 7.4 was used. Compounds of the invention were incubated with 0.1 nM [^125I]Aminopotentidine for 120 min at 25° C. Non-specific binding was estimated in the presence of 3 μM Tiotidine. Receptor proteins were filtered and washed, the filters were then counted to determine [^125I]Aminopotentidine specifically bound. Compounds were screened at 1 μM or lower, using 1% DMSO as vehicle. Biochemical assay results are presented as the percent inhibition of specific binding in Table 2.

[5] = target: T5, human recombinant serotonin (5-Hydroxytryptamine) 5-HT5A receptor (Homo sapiens, UniProt P47898); test: Serotonin 5-HT5A radioligand binding assay ([3H]LSD); settings: compound at 0.1 μM; 1.7 nM [3H]LSD; CHO-K1 cells; read-out: Percent Inhibition of ligand binding, Serotonin (0.1 μM) 5-HT5A
T5 construct: expressed in transfected cells; host or cells: Chinese hamster ovary (CHO-K1) cells
T5 sequence (P47898 whole entry): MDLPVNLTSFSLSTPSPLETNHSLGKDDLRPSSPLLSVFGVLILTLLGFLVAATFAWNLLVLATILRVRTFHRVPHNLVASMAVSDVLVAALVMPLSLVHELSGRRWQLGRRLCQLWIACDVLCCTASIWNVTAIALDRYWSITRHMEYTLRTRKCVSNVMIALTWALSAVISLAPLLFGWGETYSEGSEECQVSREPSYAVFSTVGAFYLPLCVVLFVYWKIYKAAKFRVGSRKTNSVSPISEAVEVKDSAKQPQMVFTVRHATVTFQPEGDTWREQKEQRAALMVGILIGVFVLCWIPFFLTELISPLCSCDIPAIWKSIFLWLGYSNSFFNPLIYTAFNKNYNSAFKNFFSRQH
Description: as §1, with “1.7” for “1.5”, “[^3H]Lysergic” for “[3H]Lysergic”, “60” for “120”, “[^3H]LSD” for “[3H]LSD”, “vehicle. Compounds of the invention were tested in this biochemical assay and percent inhibition of specific binding was determined.” for “vehicle.”

Row | SMILES | inhibition at 1 µM [4] [%] | inhibition at 1 µM [1] [%] | inhibition at 1 µM [3] [%] | further results
1 | CN1CCc2c(c3cc(Cl)c(Cl)cc3n2CC(C)(O)c2ccncc2)C1 (centres unmarked) [Compound 1-17, 1-(7,8-dichloro-2-methyl-3,4-dihydro-1H-pyrido[4,3-b]indol-5(2H)-yl)-2-(pyridin-4-yl)propan-2-ol] |  |  |  | inhibition at 0.1 µM [1]: 64%; inhibition at 0.1 µM [2]: 55%
2 | CN1CCc2c(c3cc(Cl)ccc3n2CC(O)c2ccncc2)C1 (centres unmarked) [Compound 1-11, 2-(8-chloro-2-methyl-3,4-dihydro-1H-pyrido[4,3-b]indol-5(2H)-yl)-1-(pyridin-4-yl)ethanol] |  |  |  | inhibition at 0.1 µM [2]: 60%
3 | Cc1ccc2c(c1)c1c(n2CC(C)(C)c2ccncc2)CCN(C)C1 [Compound 1-49, 2,8-dimethyl-5-(2-methyl-2-(pyridin-4-yl)propyl)-2,3,4,5-tetrahydro-1H-pyrido[4,3-b]indole] |  |  |  | inhibition at 0.1 µM [3]: 38%
4 | Cc1ccc2c(c1)c1c(n2CC(=O)c2ccccc2)CCN(C)C1 [Compound 1-35, 2-(2,8-dimethyl-3,4-dihydro-1H-pyrido[4,3-b]indol-5(2H)-yl)-1-phenylethanone] | 11 | 59 | 14 | 
5 | Cc1ccc2c(c1)c1c(n2CC(O)c2ccncc2)CCN(C)C1 (centres unmarked) [Compound 1-8, 2-(2,8-dimethyl-3,4-dihydro-1H-pyrido[4,3-b]indol-5(2H)-yl)-1-(pyridin-4-yl)ethanol] |  |  |  | inhibition at 0.1 µM [2]: 54%
6 | CN1CCc2c(c3cc(Cl)ccc3n2CC(=O)c2ccc(Cl)cc2)C1 [Compound 1-38, 2-(8-chloro-2-methyl-3,4-dihydro-1H-pyrido[4,3-b]indol-5(2H)-yl)-1-(4-chlorophenyl)ethanone] | 56 | 92 | 57 | 
7 | CN1CCc2c(c3cc(Cl)ccc3n2CC(=O)c2ccccc2)C1 [Compound 1-36, 2-(8-chloro-2-methyl-3,4-dihydro-1H-pyrido[4,3-b]indol-5(2H)-yl)-1-phenylethanone] | 48 | 92 | 71 | 
8 | Cc1ccc2c(c1)c1c(n2CC(C)c2ccncc2)CCN(C)C1 (centres unmarked) [Compound 1-46, 2,8-dimethyl-5-(2-(pyridin-4-yl)propyl)-2,3,4,5-tetrahydro-1H-pyrido[4,3-b]indole] |  |  |  | inhibition at 0.1 µM [3]: 45%
9 | CN1CCc2c(c3cc(Cl)ccc3n2CC(=O)c2ccc(F)cc2)C1 [Compound 1-37, 2-(8-chloro-2-methyl-3,4-dihydro-1H-pyrido[4,3-b]indol-5(2H)-yl)-1-(4-fluorophenyl)ethanone] | 80 | 87 | 71 | 
10 | CC[C@@](O)(Cn1c2c(c3cc(C)ccc31)CN(C)CC2)c1ccc(F)cc1 [Compound 1-66, (S)-1-(2,8-dimethyl-3,4-dihydro-1H-pyrido[4,3-b]indol-5(2H)-yl)-2-(4-fluorophenyl)butan-2-ol] |  |  |  | inhibition at 0.1 µM [2]: 11%; inhibition at 0.1 µM [5]: 31%; inhibition at 0.1 µM [3]: 72%
11 | CC[C@@](O)(Cn1c2c(c3cc(C)ccc31)CN(C)CC2)c1ccncc1 [Compound 1-62, (S)-1-(2,8-Dimethyl-3,4-dihydro-1H-pyrido[4,3-b]indol-5(2H)-yl)-2-(pyridine-4-yl)butan-2-ol] |  |  |  | inhibition at 0.1 µM [5]: 6%; inhibition at 0.1 µM [3]: 28%
12 | Cc1ccc2c(c1)c1c(n2CCc2ccc(CCCN)nc2)CCN(C)C1 [Compound 1-40, 3-(5-(2-(2,8-dimethyl-3,4-dihydro-1H-pyrido[4,3-b]indol-5(2H)-yl)ethyl)pyridin-2-yl)propan-1-amine] | 18 | 63 | 24 | 
13 | Cc1ccc2c(c1)c1c(n2CCc2ccc(C(F)(F)F)nc2)CCNC1 [Compound 1-41, 8-methyl-5-(2-(6-(trifluoromethyl)pyridin-3-yl)ethyl)-2,3,4,5-tetrahydro-1H-pyrido[4,3-b]indole] | 6 | 89 | 14 | 
14 | COc1ccc([C@](C)(O)Cn2c3c(c4cc(C)ccc42)CN(C)CC3)cc1 [Compound 1-20, (S)-1-(2,8-Dimethyl-3,4-dihydro-1H-pyrido[4,3-b]indol-5(2H)-yl)-2-(4-methoxyphenyl)propan-2-ol] |  |  |  | inhibition at 0.1 µM [1]: 79%; inhibition at 0.1 µM [2]: 63%
15 | Cc1ccc2c(c1)c1c(n2CCc2ccc(C)nc2)CCN(CCC#N)C1 [Compound 1-34, 3-(8-methyl-5-(2-(6-methylpyridin-3-yl)ethyl)-3,4-dihydro-1H-pyrido[4,3-b]indol-2(5H)-yl)propanenitrile] | 0 | 23 | 6 | 
16 | Cc1ccc2c(c1)c1c(n2CC(C)(O)c2ccc(O)cc2)CCN(C)C1 (centres unmarked) [Compound 1-15, 4-(1-(2,8-dimethyl-3,4-dihydro-1H-pyrido[4,3-b]indol-5(2H)-yl)-2-hydroxypropan-2-yl)phenol] |  |  |  | inhibition at 0.1 µM [1]: 103%
17 | Cc1ccc2c(c1)c1c(n2CCc2ccc(C)nc2)CCN(CCCO)C1 [Compound 1-42, 3-(8-methyl-5-(2-(6-methylpyridin-3-yl)ethyl)-3,4-dihydro-1H-pyrido[4,3-b]indole-2(5H)-yl)propan-1-ol] | 16 | 39 | 43 | 
18 | Cc1ccc2c(c1)c1c(n2CC(=O)c2ccc(F)cc2)CCN(C)C1 [Compound 1-39, 2-(2,8-dimethyl-3,4-dihydro-1H-pyrido[4,3-b]indol-5(2H)-yl)-1-(4-fluorophenyl)ethanone] | 66 | 92 | 62 | 
